{
  "source": "PubChem BioAssay AID330",
  "about": "(DTP/NCI, 2004)",
  "system": "P388 leukemia ip, CD2F1 mice, survival T/C",
  "assay": "NCI In Vivo Anticancer Drug Screen. Data for tumor model P388 Leukemia (intraperitoneal) in CD2F1 (CDF1) mice",
  "conditions": "endpoint: median survival time, higher = longer survival",
  "how_it_was_run": "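Mice carrying the transplanted tumor received test compound or vehicle. Survival was recorded in each group, and the value is the treated-group measurement divided by that of the vehicle-treated control group.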",
  "key": {"[1]": {"conditions": "dose: 50.0 mg/kg/injection, schedule: Q01DX005 (ip), vehicle: saline"}, "[2]": {"conditions": "dose: 100.0 mg/kg/injection, schedule: Q01DX005 (ip), vehicle: saline"}, "[3]": {"conditions": "dose: 12.5 mg/kg/injection, schedule: Q01DX009 (ip), vehicle: water"}, "[4]": {"conditions": "dose: 25.0 mg/kg/injection, schedule: Q01DX009 (ip), vehicle: water"}},
  "note": "Values joined by “and” are separate entries in the source; they are usually repeats but may differ in a detail not shown here. Equal entries are not always repeated. Inconclusive results and toxic doses are left out.",
  "data": [
    {"smiles": "CC(C)C(=O)NCCCCCCN1CCCCC1", "values": [
      {"measurement": "T/C", "setting": "[1]", "value": "96 % of control"},
      {"measurement": "T/C", "setting": "[2]", "value": "100 % of control"}
    ]},
    {"smiles": "CCOC(=O)C(=CNC(C)(C)C)C(=O)OCC", "values": [
      {"measurement": "T/C", "setting": "dose: 50.0 mg/kg/injection, schedule: Q01DX009 (ip), vehicle: saline with Tween-80", "value": "106 % of control"},
      {"measurement": "T/C", "setting": "dose: 100.0 mg/kg/injection, schedule: Q01DX009 (ip), vehicle: saline with Tween-80", "value": "115 % of control"},
      {"measurement": "T/C", "setting": "dose: 200.0 mg/kg/injection, schedule: Q01DX009 (ip), vehicle: saline with Tween-80", "value": "100 % of control"}
    ]},
    {"smiles": "O=C1c2cc3cc4ccccc4cc3cc2C(=O)c2c(O)ccc(O)c21", "values": [
      {"measurement": "T/C", "setting": "dose: 50.0 mg/kg/injection, schedule: Q04DX002 (ip), vehicle: saline with Tween-80", "value": "90 % of control"},
      {"measurement": "T/C", "setting": "dose: 100.0 mg/kg/injection, schedule: Q04DX002 (ip), vehicle: saline with Tween-80", "value": "91 % of control"},
      {"measurement": "T/C", "setting": "dose: 200.0 mg/kg/injection, schedule: Q04DX002 (ip), vehicle: saline with Tween-80", "value": "99 % of control"}
    ]},
    {"smiles": "O=C1C2CC=CCC2C(=O)N1CC[P+](c1ccccc1)(c1ccccc1)c1ccccc1", "note": "(configuration not stated)", "values": [
      {"measurement": "T/C", "setting": "dose: 0.78 mg/kg/injection, schedule: Q01DX009 (ip), vehicle: water", "value": "100 % of control"},
      {"measurement": "T/C", "setting": "dose: 1.56 mg/kg/injection, schedule: Q01DX009 (ip), vehicle: water", "value": "102 % of control and 95 % of control"},
      {"measurement": "T/C", "setting": "dose: 3.13 mg/kg/injection, schedule: Q01DX009 (ip), vehicle: water", "value": "102 % of control and 106 % of control"},
      {"measurement": "T/C", "setting": "dose: 6.25 mg/kg/injection, schedule: Q01DX009 (ip), vehicle: water", "value": "112 % of control"},
      {"measurement": "T/C", "setting": "[3]", "value": "115 % of control and 116 % of control"},
      {"measurement": "T/C", "setting": "[4]", "value": "115 % of control"}
    ]},
    {"smiles": "CC1C(=O)N(C)C(=O)N(C2CCCCC2)C1=O", "note": "(configuration not stated)", "values": [
      {"measurement": "T/C", "setting": "dose: 60.0 mg/kg/injection, schedule: Q01DX005 (ip), vehicle: saline with Tween-80", "value": "104 % of control"},
      {"measurement": "T/C", "setting": "dose: 120.0 mg/kg/injection, schedule: Q01DX005 (ip), vehicle: saline with Tween-80", "value": "104 % of control"},
      {"measurement": "T/C", "setting": "dose: 240.0 mg/kg/injection, schedule: Q01DX005 (ip), vehicle: saline with Tween-80", "value": "101 % of control"}
    ]},
    {"smiles": "Cc1ccc2nc(N/N=C/c3ccccn3)cc(C)c2c1", "values": [
      {"measurement": "T/C", "setting": "dose: 50.0 mg/kg/injection, schedule: Q01DX005 (ip), vehicle: saline with Tween-80", "value": "103 % of control and 107 % of control and 111 % of control"},
      {"measurement": "T/C", "setting": "dose: 100.0 mg/kg/injection, schedule: Q01DX005 (ip), vehicle: saline with Tween-80", "value": "110 % of control and 114 % of control and 115 % of control"},
      {"measurement": "T/C", "setting": "dose: 200.0 mg/kg/injection, schedule: Q01DX005 (ip), vehicle: saline with Tween-80", "value": "110 % of control"}
    ]},
    {"smiles": "CC1CN=C(CCc2ccc(NC(=O)c3ccc(C(=O)Nc4ccc(CCC5=NCC(C)N5)cc4)cc3)cc2)N1", "note": "(configuration not stated)", "values": [
      {"measurement": "T/C", "setting": "dose: 12.5 mg/kg/injection, schedule: Q01DX005 (ip), vehicle: Klucel (hydroxypropylcellulose) (HPC)", "value": "108 % of control"},
      {"measurement": "T/C", "setting": "dose: 25.0 mg/kg/injection, schedule: Q01DX005 (ip), vehicle: Klucel (hydroxypropylcellulose) (HPC)", "value": "108 % of control"},
      {"measurement": "T/C", "setting": "dose: 100.0 mg/kg/injection, schedule: Q01DX005 (ip), vehicle: Klucel (hydroxypropylcellulose) (HPC)", "value": "160 % of control"}
    ]},
    {"smiles": "COc1ccc(C2OC(=O)C(=O)C2=O)cc1OC", "note": "(configuration not stated)", "values": [
      {"measurement": "T/C", "setting": "dose: 60.0 mg/kg/injection, schedule: Q01DX005 (ip), vehicle: Klucel (hydroxypropylcellulose) (HPC)", "value": "100 % of control"},
      {"measurement": "T/C", "setting": "dose: 120.0 mg/kg/injection, schedule: Q01DX005 (ip), vehicle: Klucel (hydroxypropylcellulose) (HPC)", "value": "107 % of control"},
      {"measurement": "T/C", "setting": "dose: 240.0 mg/kg/injection, schedule: Q01DX005 (ip), vehicle: Klucel (hydroxypropylcellulose) (HPC)", "value": "105 % of control"}
    ]},
    {"smiles": "CN1CCN(CCCN2CC(=O)N3Cc4ccccc4CN3C(=O)C2)CC1", "values": [
      {"measurement": "T/C", "setting": "[1]", "value": "102 % of control"},
      {"measurement": "T/C", "setting": "[2]", "value": "102 % of control"},
      {"measurement": "T/C", "setting": "dose: 200.0 mg/kg/injection, schedule: Q01DX005 (ip), vehicle: saline", "value": "103 % of control"}
    ]},
    {"smiles": "COC(=O)C1=C(C(=O)OC)N2c3ccccc3-n3c(-c4ccccc4)cc(OC)c3C2(C)C(C(=O)OC)=C1C(=O)OC", "note": "(configuration not stated)", "values": [
      {"measurement": "T/C", "setting": "dose: 100.0 mg/kg/injection, schedule: Q01DX001 (ip), vehicle: saline with Tween-80", "value": "99 % of control"},
      {"measurement": "T/C", "setting": "dose: 200.0 mg/kg/injection, schedule: Q01DX001 (ip), vehicle: saline with Tween-80", "value": "99 % of control"},
      {"measurement": "T/C", "setting": "dose: 400.0 mg/kg/injection, schedule: Q01DX001 (ip), vehicle: saline with Tween-80", "value": "92 % of control"}
    ]},
    {"smiles": "CCOC(=O)/C=C/C(=O)NN", "values": [
      {"measurement": "T/C", "setting": "[3]", "value": "89 % of control"},
      {"measurement": "T/C", "setting": "[4]", "value": "100 % of control"},
      {"measurement": "T/C", "setting": "dose: 50.0 mg/kg/injection, schedule: Q01DX009 (ip), vehicle: water", "value": "99 % of control and 102 % of control and 93 % of control"},
      {"measurement": "T/C", "setting": "dose: 100.0 mg/kg/injection, schedule: Q01DX009 (ip), vehicle: water", "value": "107 % of control and 109 % of control and 97 % of control"},
      {"measurement": "T/C", "setting": "dose: 200.0 mg/kg/injection, schedule: Q01DX009 (ip), vehicle: water", "value": "104 % of control and 109 % of control"}
    ]}
  ]
}
